What was measured:
Type in all cases: cell-based
[1] = test system: primary human mesenchymal stem cells (hMSCs); assay: Induction of chondrogenesis in hMSCs (nodule imaging, Rhodamine B / Nile Red); conditions: 6 days, relative to TGF-β3 (10 ng/mL) positive control, read-out: Max. Activity as % TGF-β3 activity
Source text: Representative compounds were screened using primary human mesenchymal stem cells (hMSCs) to determine their ability to induce chondrogenesis (process by which cartilage is developed).
Primary human mesenchymal stem cells (hMSCs) were purchased from Lonza (Walkersville, Md.) and expanded in Mesenchymal Stem Cell Growth Media (Lonza). Cells between passage 3 and 6 were used for the experiments.
Area of nodules in each well was normalized to the average of 3 DMSO treated wells on the same plate using Excel (Microsoft Inc.). The normalized averages (fold change over DMSO) of 2 or 3 replicate wells for each compound concentration were calculated. Due to solubility limitations of some of the compounds, curve fitting was incomplete leading to inaccurate EC50 determinations.
Using TGF-β3 as a positive control, the concentration of representative compounds required to induce 50% levels of chondrogenesis is reported. In addition, the maximum activity of each compound and the respective dose that each compound reached maximum chondrogenesis activity is reported.

SW480 colon cancer cells = assay: Cell viability assay (CellTiter-Blue) in SW480 colon cancer cells; conditions: Homo sapiens; for EC50: 96 h, SW480 cell viability, four days incubation; for inhibition at 10 µM: SW480, read-out: percent inhibition at 10 μM
Description: Representative compounds were screened using the following assay procedure to assess the effect on cell viability as described below.
Approximately 2×10^3 SW480 colon cancer cells were seeded into each well and allowed to incubate in the presence or absence of compound for four days at 37° C./5% CO2. Eight replicates of DMSO-treated cells served as controls and cells treated with compound were performed in duplicate.
After incubation, 20 μL of CellTiter-Blue (Promega) was added to each well allowed to incubate for approximately 3 hours. This reagent was a buffered solution which contains resazurin, metabolically active cells were able to reduce rezarurin (blue) into resorufin (pink) which was highly fluorescent. This measured fluorescence was used as a readout for cell viability.

[2] = test system: Wnt activity (Sp5-Luc reporter, SW480 colon carcinoma cells); assay: Screening assay for Wnt activity: Sp5-Luc reporter gene assay in SW480 cells; conditions: Homo sapiens; SW480 Sp5-Luc reporter, overnight incubation
Source text: The screening assay for Wnt activity is described as follows. Reporter cell lines can be generated by stably transducing cancer cell lines (e.g., colon cancer) or primary cells (e.g., IEC-6 intestinal cells) with a lentiviral construct that includes a Wnt-responsive promoter driving expression of the firefly luciferase gene.
SW480 colon carcinoma cells were transduced with a lentiviral vector expressing luciferase with a human Sp5 promoter consisting of a sequence of eight TCF/LEF binding sites. SW480 cells stably expressing the Sp5-Luc reporter gene and a hygromycin resistance gene were selected by treatment with 150 μg/mL of hygromycin for 7 days. These stably transduced SW480 cells were expanded in cell culture and used for all further screening activities. […] For Sp5-Luc reporter gene assays, the cells were plated at 4,000 cells/well in 384-well plates with medium containing 1% fetal bovine serum and incubated overnight at 37° C. and 5% CO2. Following incubation, 20 μl of BrightGlo luminescence reagent (Promega) was added to each well of the 384-well assay plates. The plates were placed on an orbital shaker for 2 min and then luminescence was quantified using the Envision (Perkin Elmer) plate reader. Readings were normalized to DMSO only treated cells, and normalized activities were utilized for EC50 calculations using the dose-response log (inhibitor) vs. response-variable slope (four parameters) nonlinear regression feature available in GraphPad Prism 5.0 (or Dotmatics).

[3] = test system: Primary human fibroblasts derived from IPF patients (LL29 cells); assay: Inhibition of the fibrotic process: αSMA staining in TGF-β1-treated LL29 fibroblasts; conditions: Fibroblast; for EC50: 96 h, LL29 cells, TGF-β1 20 ng/mL, 4 days, % αSMA-positive cells; for inhibition at 10 µM: read-out: percent inhibition at 10 μM
Source text: Representative compounds were screened using primary human fibroblasts (derived from IFF patients) treated with TGF-β1 to determine their ability to inhibit the fibrotic process.
K. L., et.al., “RhoA signaling modulates cyclin D1 expression in human lung fibroblasts; implications for idiopathic pulmonary fibrosis”, Respiratory Research (2006), 7(1), 88] were obtained from American Type Culture Collection (ATCC) and expanded in F12 medium supplemented with 15% Fetal Bovine Serum and Penicillin/Streptomycin.
LL29 cells are plated at 1,500 cells/well in 80 μL/well F12 medium supplemented with 1% Fetal Bovine Serum. […] Wells treated with TGF-β1 and containing DMSO were used as controls. […] Following incubation for 4 days, SYTOX green nucleic acid stain (Life Technologies [Thermo Fisher Scientific]) was added to the wells at a final concentration of 1 μM and incubated at room temperature for 30 min.

IL-6 (THP-1 cells) = assay: IL-6 inhibition in THP-1 monocytes (HTRF); conditions: Homo sapiens; for EC50: IL-6 inhibition, THP-1 cells, HTRF, 10-point dose-response starting from 10 μM; for inhibition at 10 µM: THP-1, read-out: percentage in parentheses printed under EC50 >10
Description: Compound Screening: THP-1 cells were cultured in basal media with 1% FBS for 24 hours before the start of the assay. […] THP-1 cells were plated at 5000 cells/well in the 384-well plates and incubated at 37° C. for 2 h. 500 ng/mL of […] was added after 2 hours and cells were incubated for another 22 hours at 37° C. Plates were spun in a centrifuge for 1 minute at 10,000 rpm and a mixture of anti-IL6 XL665, and anti-IL6 Cryptate diluted in reconstitution buffer (Cisbio Inc.) was added to each well. Following incubation for 3 hrs at room temperature, Homogeneous Time-Resolved Fluorescence (HTRF) was measured using the Envision (Perkin Elmer) at 665 nm and […]. The ratio of fluorescence at 665 nm to 620 nm was used as a readout for IL6 quantification. All samples were processed in duplicate. Readings were normalized to DMSO treated cells and normalized activities were utilized for EC50 calculations using the dose-response log (inhibitor) vs. response-variable slope (four parameters) nonlinear regression feature available in GraphPad Prism 5.0 (or Dotmatics).

| SMILES | Emax [1] | EC50 (SW480 colon cancer cells) | EC50 [2] | EC50 [3] | EC50 (IL-6 (THP-1 cells)) | inhibition at 10 µM (SW480 colon cancer cells) | inhibition at 10 µM [3] | inhibition at 10 µM (IL-6 (THP-1 cells)) |
| --- | --- | --- | --- | --- | --- | --- | --- | --- |
| CCC(=O)Nc1cncc(-c2ccc3[nH]nc(-c4cc5c(-c6cccc(F)c6)cncc5[nH]4)c3c2)c1 [Compound 1] | 34% | 94 nM | 45 nM | 62 nM | 45 nM |  |  |  |
| Nc1cncc(-c2ccc3[nH]nc(-c4cc5c(N6CCCCC6)cncc5[nH]4)c3c2)c1 [Compound 171, 5-(3-(4-(Piperidin-1-yl)-1H-pyrrolo[2,3-c]pyridin-2-yl)-1H-indazol-5-yl) pyridin-3-amine] |  | > 10000 nM | 3650 nM | > 10000 nM | 1540 nM | 43% | 9.8% |  |
| c1cc(-c2ccc3[nH]nc(-c4cc5c(-c6ccsc6)cncc5[nH]4)c3c2)ccn1 [Compound 298, 5-(Pyridin-4-yl)-3-(4-(thiophen-3-yl)-1H-pyrrolo[2,3-c]pyridin-2-yl)-1H-indazole] |  | 1360 nM | 1330 nM | 716 nM | 1090 nM |  |  |  |
| c1cc(-c2cncc3[nH]c(-c4n[nH]c5ccc(-c6cncc(CN7CCCCC7)c6)cc45)cc23)co1 [Compound 323, 3-(4-(Furan-3-yl)-1H-pyrrolo[2,3-c]pyridin-2-yl)-5-(5-(piperidin-1-ylmethyl)pyridin-3-yl)-1H-indazole] |  | 570 nM | 418 nM | 1390 nM | 219 nM |  |  |  |
| CS(=O)(=O)NCc1cc(F)cc(-c2cncc3[nH]c(-c4n[nH]c5ccc(-c6cncc(NC(=O)Cc7ccccc7)c6)cc45)cc23)c1 [Compound 486, N-(5-(3-(4-(3-Fluoro-5-(methylsulfonamidomethyl)phenyl)-1H-pyrrolo[2,3-c]pyridin-2-yl)-1H-indazol-5-yl)pyridin-3-yl)-2-phenylacetamide] |  | > 10000 nM | 3480 nM | 4770 nM | 574 nM | 45.4% |  |  |
| CC(C)Nc1cncc(-c2ccc3[nH]nc(-c4cc5c(-c6cc(F)cc(CNS(C)(=O)=O)c6)cncc5[nH]4)c3c2)c1 [Compound 488, N-(3-Fluoro-5-(2-(5-(5-(isopropylamino)pyridin-3-yl)-1H-indazol-3-yl)-1H-pyrrolo[2,3-c]pyridin-4-yl)benzyl)methanesulfonamide] |  | 1650 nM | 759 nM | 2220 nM | 130 nM |  |  |  |
| CCCCC(=O)Nc1cncc(-c2ccc3[nH]nc(-c4cc5c(-c6cc(F)cc(CNS(C)(=O)=O)c6)cncc5[nH]4)c3c2)c1 [Compound 495, N-(5-(3-(4-(3-Fluoro-5-(methylsulfonamidomethyl)phenyl)-1H-pyrrolo[2,3-c]pyridin-2-yl)-1H-indazol-5-yl)pyridin-3-yl)pentanamide] |  | 3440 nM | 1730 nM | > 10000 nM | 397 nM |  | 3.3% |  |
| CS(=O)(=O)NCc1cc(F)cc(-c2cncc3[nH]c(-c4n[nH]c5ccc(-c6cncnc6)cc45)cc23)c1 [Compound 503, N-(3-Fluoro-5-(2-(5-(pyrimidin-5-yl)-1H-indazol-3-yl)-1H-pyrrolo[2,3-c]pyridin-4-yl)benzyl)methanesulfonamide] |  | > 10000 nM | 2540 nM | > 10000 nM | 42 nM | 20.3% | 17.1% |  |
| Fc1ccc(-c2cncc3[nH]c(-c4n[nH]c5ccc(C6=CCNCC6)cc45)cc23)cc1 [Compound 522, 3-(4-(4-Fluorophenyl)-1H-pyrrolo[2,3-c]pyridin-2-yl)-5-(1,2,3,6-tetrahydropyridin-4-yl)-1H-indazole] |  | 1670 nM | 3980 nM | 2690 nM | > 10000 nM |  |  | 22% |
| CN(C)CCOc1cncc(-c2ccc3[nH]nc(-c4cc5c(-c6ccc(F)cc6)cncc5[nH]4)c3c2)c1 [Compound 531, 2-((5-(3-(4-(4-Fluorophenyl)-1H-pyrrolo[2,3-c]pyridin-2-yl)-1H-indazol-5-yl)pyridin-3-yl)oxy)-N,N-dimethylethan-1-amine] |  | 976 nM | 2010 nM | 607 nM | 2760 nM |  |  |  |
| Fc1ccccc1-c1cncc2[nH]c(-c3n[nH]c4ccc(-c5cn[nH]c5)cc34)cc12 [Compound 539, 3-(4-(2-Fluorophenyl)-1H-pyrrolo[2,3-c]pyridin-2-yl)-5-(1H-pyrazol-4-yl)-1H-indazole] |  | 134 nM | 49 nM | 164 nM | 37 nM |  |  |  |
| Fc1ccccc1-c1cncc2[nH]c(-c3n[nH]c4ccc(-c5cncc(OC6CCNCC6)c5)cc34)cc12 [Compound 544, 3-(4-(2-Fluorophenyl)-1H-pyrrolo[2,3-c]pyridin-2-yl)-5-(5-(piperidin-4-yloxy)pyridin-3-yl)-1H-indazole] |  | 1350 nM | 1830 nM | 2760 nM | 436 nM |  |  |  |
| NC1CN(c2cncc(-c3ccc4[nH]nc(-c5cc6c(N7CCCCC7)cncc6[nH]5)c4c3)n2)C1 [Compound 606, 1-(6-(3-(4-(Piperidin-1-yl)-1H-pyrrolo[2,3-c]pyridin-2-yl)-1H-indazol-5-yl)pyrazin-2-yl)azetidin-3-amine] |  | 2810 nM | 738 nM | 486 nM | 306 nM |  |  |  |
| c1ncc(-c2ccc3[nH]nc(-c4cc5c(N6CCCCC6)cncc5[nH]4)c3c2)cc1OC1CCCCC1 [Compound 607, 5-(5-(Cyclohexyloxy)pyridin-3-yl)-3-(4-(piperidin-1-yl)-1H-pyrrolo[2,3-c]pyridin-2-yl)-1H-indazole] |  | 1980 nM | 1120 nM | 647 nM | 4450 nM |  |  |  |
| CS(=O)(=O)NCc1cc(F)cc(-c2cncc3[nH]c(-c4n[nH]c5ccc(-c6cncc(OCc7ccccc7)c6)cc45)cc23)c1 [Compound 774, N-(3-(2-(5-(5-(Benzyloxy)pyridin-3-yl)-1H-indazol-3-yl)-1H-pyrrolo[2,3-c]pyridin-4-yl)-5-fluorobenzyl)methanesulfonamide] |  | 2010 nM | 2150 nM | 1490 nM | > 10000 nM |  |  | 45% |

— patent US20180228780A1, “3-(1H-PYRROLO[2,3-C]PYRIDIN-2-YL)-1H-INDAZOLES AND THERAPEUTIC USES THEREOF” (Samumed, LLC, priority 2015, published 2018)
